# Patent US6987092B1, “Indigoid bisindole derivatives” (Faustus Forschungs Cie. Translational Cancer Research GmbH, priority 1999, dated 2006)
# Structures can show the parent of a compound that is named as a salt.
# How the values were obtained:
# [1] = tested on: cells of the large-cell lung carcinoma of the tumor line LXFL-529L; test: Tumor cell growth inhibition, SRB-assay, LXFL-529L; format: cell-based; conditions: 50% growth inhibition, three days incubation in serum-containing medium
# [2] = tested on: cells of the mammary carcinoma cell line MCF-7; test: Tumor cell growth inhibition, SRB-assay, MCF-7; format: cell-based; conditions: 50% growth inhibition, three days incubation in serum-containing medium
Compound,IC50 [1],IC50 [2]
3-{3′-[iminooxy-O-(2-(2-amino-2-deoxy-D-glucopyranosyl)-ethyl)]-(2′H3′H)indol-2′-ylidene}-(2H3H)indol-2-one [Example 53],15 ± 0.9 µM,7 ± 0.7 µM
3-{3′-[iminooxy-O-(2-D-galactopyranosylethyl)]-(2′H3′H)indol-2′-ylidene}-(2H3H)indol-2-one [Example 47],17 ± 1.2 µM,9.5 ± 0.9 µM
3-{3′-[iminooxy-O-(O^4-α-D-glucopyranosyl-2-D-glucopyranosylethyl)]-(2′H3′H)indol-2′-ylidene}-(2H3H)indol-2-one [Example 46],24 ± 1.3 µM,7 ± 0.9 µM
"CC(C)c1ccc2c(c1)/C(=C1/Nc3ccccc3C1=O)C(=O)N2 [Example 3, 5-isopropyl-indirubin]",4 ± 0.2 µM,0.5 ± 0.2 µM
"O=C1Nc2ccc(CC(=O)N3CCNCC3)cc2C1=C1Nc2ccccc2C1=O [Example 6, 5-[2-(piperazin-1-yl)-ethan-2-one-1-yl]-indirubin]",4 ± 0.5 µM,8 ± 0.9 µM
"O=C1Nc2ccc(CC(=O)N3CCOCC3)cc2C1=C1Nc2ccccc2C1=O [Example 7, 5-[2-(morpholin-4-yl)-ethan-2-one-1-yl]-indirubin]",5.5 ± 0.7 µM,7.5 ± 0.6 µM
"COC(=O)CNC(=O)Cc1ccc2c(c1)C(=C1Nc3ccccc3C1=O)C(=O)N2 [Example 12, methyl-2-{2-[3-(3′-oxo-(2′H3′H)indol-2′-ylidene)-(2H3H)indol-2-one-5-yl]-acetylamino}-acetate]",8 ± 0.8 µM,6.5 ± 1.2 µM
"O=C1Nc2ccc(CP(=O)(O)O)cc2C1=C1Nc2ccccc2C1=O [Example 13, [3-(3′-oxo-(2′H3′H)indol-2′-ylidene)-(2H3H)indol-2-one-5-yl]-methyl-phosphonic Acid]",8.5 ± 0.8 µM,6.5 ± 1 µM
"CCOP(=O)(Cc1ccc2c(c1)C(=C1Nc3ccccc3C1=O)C(=O)N2)OCC [Example 14, diethyl-{[3-(3′-oxo-(2′H3′H)indol-2′-ylidene)-(2H3H)indol-2-one-5-yl]-methyl}-phosphonate]",6.5 ± 1.2 µM,6 ± 1.1 µM
"O=C(O)CCC(=O)Nc1ccc2c(c1)C(=C1Nc3ccccc3C1=O)C(=O)N2 [Example 17, [3-(3′-oxo-(2′H3′H)indol-2′-ylidene)-(2H3H)indol-2-one-5-yl]-succinamic acid]",12.5 ± 0.7 µM,14 ± 0.9 µM
"NCC(=O)Nc1ccc2c(c1)C(=C1Nc3ccccc3C1=O)C(=O)N2 [Example 18, 2-amino-N-[3-(3′-oxo-(2′H3′H)indol-2′-ylidene)-(2H3H)indol-2-one-5-yl]-acetamide]",4 ± 0.4 µM,3 ± 0.3 µM
"COC(=O)CNS(=O)(=O)c1ccc2c(c1)C(=C1Nc3ccccc3C1=O)C(=O)N2 [Example 24, methyl-2-{[3-(3′-oxo-(2′H3′H)indol-2′-ylidene)-(2H3H)indol-2-one-5-yl]-sulfonylamino}-acetate]",16 ± 0.8 µM,25 ± 0.9 µM
"CC(C)c1ccc2c(c1)C(=C1Nc3ccccc3C1=NO)C(=O)N2 [Example 27, 5-isopropyl-indirubin-3′-monooxime]",5.5 ± 0.6 µM,5 ± 0.9 µM
"CC(=O)Nc1ccc2c(c1)C(=C1Nc3ccccc3C1=NO)C(=O)N2 [Example 29, 5-acetylamino-indirubin-3′-monooxime]",4 ± 0.9 µM,5 ± 0.5 µM
"O=C1Nc2ccccc2C1=C1Nc2ccccc2C1=NOCCOCCO [Example 33, 3-{3′-[iminooxy-O-(2-(2-hydroxy-ethoxy)-ethyl)]-(2′H3′H)indol-2′-ylidene}-(2H3H)indol-2-one]",2 ± 0.4 µM,2.5 ± 0.5 µM
"CC(C)(O)CON=C1C(=C2C(=O)Nc3ccccc32)Nc2ccccc21 [Example 34, 3-{3′-[iminooxy-O-((2-hydroxy-2-methyl)-propyl)]-(2′H3′H)indol-2′-ylidene}-(2H3H)indol-2-one]",2 ± 0.5 µM,2 ± 0.3 µM
"O=C(O)CCON=C1C(=C2C(=O)Nc3ccccc32)Nc2ccccc21 [Example 36, 3-{O-[2′-(2-oxo-(2H3H)indol-3-ylidene)-(2′H3′H)indol-3′-ylidene]-aminooxy}-propionic Acid (Sodium Salt)]",–,16 ± 0.7 µM
"O=C(O)CCCON=C1C(=C2C(=O)Nc3ccccc32)Nc2ccccc21 [Example 37, 4-{O-[2′-(2-oxo-(2H3H)indol-3-ylidene)-(2′H3′H)indol-3′-ylidene]-aminooxy}-butyric Acid (Sodium Salt)]",12 ± 1 µM,14 ± 1.1 µM
"CCOC(=O)ON=C1C(=C2C(=O)Nc3ccccc32)Nc2ccccc21 [Example 39, 3-[3′-(iminooxy-O-carbethoxy)-(2′H3′H)indol-2′-ylidene]-(2H3H)indol-2-one]",4.5 ± 0.7 µM,10 ± 0.9 µM
"CCOC(=O)CON=C1C(=C2C(=O)Nc3ccccc32)Nc2ccccc21 [Example 40, ethyl-2{O-[2′-(2-oxo-(2H3H)indol-3-ylidene)-(2′H3′H)indol-3′-ylidene]-aminooxy}-acetate]",6 ± 0.4 µM,10 ± 0.7 µM
"CN(C)C(=O)ON=C1C(=C2C(=O)Nc3ccccc32)Nc2ccccc21 [Example 41, 3-{3′-[iminooxy-O-((N,N)-dimethyl-carbamoyl)]-(2′H3′H)indol-2′-ylidene}-(2H3H)indol-2-one]",5 ± 0.6 µM,7.5 ± 0.9 µM
"CN1CCN(CCON=C2C(=C3C(=O)Nc4ccccc43)Nc3ccccc32)CC1 [Example 65, 3-{3′-[iminooxy-O-(2-(4-methyl-piperazin-1-yl)-ethyl)]-(2′H3′H)indol-2′-ylidene}-(2H3H)indol-2-one]",–,7.5 ± 0.8 µM

# Further lines, results first:
IC50 [1],IC50 [2],Compound
17 ± 0.8 µM,2.5 ± 0.8 µM,3-[3′-[iminooxy-O-(2-D-glucopyranosylethyl)]-(2H′3H′)indol-2′-ylidene]-5-methyl-(2H3H)indol-2-one [Example 68]
3.5 ± 0.7 µM,2.5 ± 0.9 µM,3-[3′-[iminooxy-O-(N-(1-deoxy-glucitol)-2-amino-ethyl)]-(2H′3H′)indol-2′-ylidene]-5-methyl-(2H3H)indol-2-one [Example 69]
16 ± 1.1 µM,9 ± 0.9 µM,3-{3′-[iminooxy-O-(2-(2-amino-2-deoxy-D-galactopyranosyl)-ethyl)]-(2′H3′H)indol-2′-ylidene}(2H3H)indol-2-one [Example 54]
7 ± 0.6 µM,8 ± 1.2 µM,3-{3′-[iminooxy-O-(2-(2-amino-ethyl)-amino-ethyl)]-(2′H3′H)indol-2′-ylidene}-(2H3H)indol-2-one [Example 66]
20.5 ± 1.4 µM,5 ± 0.7 µM,3-{3′-[iminooxy-O-(2-L-arabinopyranosylethyl)]-(2′H3′H)indol-2′-ylidene}-(2H3H)indol-2-one [Example 49]
19 ± 0.9 µM,10.5 ± 0.6 µM,3-{3′-[iminooxy-O-(3-D-glucopyranosylpropyl)]-(2′H3′H)indol-2′-ylidene}-(2H3H)indol-2-one [Example 45]
8 ± 0.3 µM,12.4 ± 0.7 µM,"3-{3′-[iminooxy-O-((N,N)-bis(hydroxyethyl)-4-amino-butyl)]-(2H3H)indol-2′-ylidene}-(2H3H)indol-2-one [Example 61]"
7 ± 0.4 µM,6.5 ± 0.5 µM,"CCCc1ccc2c(c1)C(=C1Nc3ccccc3C1=O)C(=O)N2 [Example 4, 5-n-propyl-indirubin]"
–,19.5 ± 1.4 µM,"O=C(O)Cc1ccc2c(c1)C(=C1Nc3ccccc3C1=O)C(=O)N2 [Example 5, 5-(carboxymethyl)-indirubin]"
3.5 ± 0.7 µM,4 ± 0.6 µM,"NCCNC(=O)Cc1ccc2c(c1)C(=C1Nc3ccccc3C1=O)C(=O)N2 [Example 8, N-(2-amino-ethyl)-2-[3-(3′-oxo-(2′H3′H)indol-2′-ylidene)-(2H3H)indol-2-one-5-yl]-acetamide]"
11.5 ± 0.6 µM,17 ± 1 µM,"CNC(=O)Cc1ccc2c(c1)C(=C1Nc3ccccc3C1=O)C(=O)N2 [Example 9, N-methyl-2-[3-(3′-oxo-(2′H3′H)indol-2′-ylidene)-(2H3H)indol-2-one-5-yl]-acetamide]"
16 ± 0.9 µM,20 ± 1.3 µM,"CN(C)C(=O)Cc1ccc2c(c1)C(=C1Nc3ccccc3C1=O)C(=O)N2 [Example 10, N,N-dimethyl-2-[3-(3′-oxo-(2′H3′H)indol-2′-ylidene)-(2H3H)indol-2-one-5-yl]-acetamide]"
10 ± 0.8 µM,–,"CC(=O)Nc1ccc2c(c1)C(=C1Nc3ccccc3C1=O)C(=O)N2 [Example 16, 5-acetylamino-indirubin]"
7 ± 0.7 µM,5 ± 0.6 µM,"CC(N)C(=O)Nc1ccc2c(c1)C(=C1Nc3ccccc3C1=O)C(=O)N2 (stereo not shown) [Example 19, 2-amino-N-[3-(3′-oxo-(2′H3′H)indol-2′-ylidene)-(2H3H)indol-2-one-5-yl]-propionamide]"
4 ± 0.3 µM,3.5 ± 0.4 µM,"NCCNc1ccc2c(c1)C(=C1Nc3ccccc3C1=O)C(=O)N2 [Example 20, 5-(2-amino-ethyl)-amino-indirubin]"
3 ± 0.5 µM,5 ± 0.6 µM,"O=C1Nc2ccc(NCCO)cc2C1=C1Nc2ccccc2C1=O [Example 21, 5-(2-hydroxy-ethyl)-amino-indirubin]"
3 ± 0.5 µM,2 ± 0.3 µM,"O=C1Nc2ccc(S(=O)(=O)N3CCNCC3)cc2C1=C1Nc2ccccc2C1=O [Example 22, indirubin-5-sulfonic acid-(piperazin-1-yl-amide)]"
6 ± 0.8 µM,6 ± 0.7 µM,"NCC(=O)Nc1ccc2c(c1)C(=C1Nc3ccccc3C1=NO)C(=O)N2 [Example 30, 2-amino-N-[3-(3′-hydroxyimino-(2H3H)indol-2′-ylidene)-(2H3H)-indol-2-one-5-yl]-acetamide]"
14 ± 0.8 µM,14 ± 0.7 µM,"O=C(O)CCCCON=C1C(=C2C(=O)Nc3ccccc32)Nc2ccccc21 [Example 38, 5{O-[2′-(2-oxo-(2H3H)indol-3-ylidene)-(2′H3′H)indol-3′-ylidene]-aminooxy}-pentanoic Acid (Sodium Salt)]"
23 ± 1.4 µM,–,"O=C1Nc2ccccc2C1=C1Nc2ccccc2C1=NOCCN[C@H]1C(O)O[C@H](CO)[C@H](O)[C@@H]1O (stereo partly shown) [Example 57, 3-{3′-[iminooxy-O-(N-(2-deoxy-galactose)-2-amino-ethyl)]-(2′H3′H)indol-2′-ylidene}-(2H3H)indol-2-one]"
